Experimental data as given in EP4745135A1 (Gluetacs Therapeutics (Shanghai) Co., Ltd., priority 2023, dated 2025).

Legend:
[1] = test system: Human T lymphocytic leukemia cell line: Jurkat; experiment: Tumor cell proliferation inhibition (CellTiter-Meiluncell luminescent cell viability assay); conditions: 96 h; for inhibition at 0.01 µM: read-out: Inhibition Rate at 10 nM (%); for inhibition at 0.5 µM: read-out: Inhibition Rate at 500 nM (%)
[2] = test system: Human breast cancer cell (MCF-7); experiment: as above; conditions: MCF7, 96 h; for inhibition at 0.5 µM: read-out: Inhibition Rate at 500 nM (%)
Procedure: (§1) The tumor cells used herein were cultured in a cell culture medium listed in table 2 at 37°C in an incubator with 5% CO2. Prior to experimentation, all cell lines used were correctly identified by STR profiling, and tested negative for mycoplasma contamination using a mycoplasma detection kit through routine screenings.
(§2) The IC50 values of the compounds of the present disclosure (including the compounds in Table 1 and Examples) were determined using the CellTiter-Meiluncell Luminescent Cell Viability Assay Kit from Dalian Meilun Biotech Co., Ltd. The detailed procedure is as follows: Tumor cells were seeded in 96-well cell culture plates at the densities specified in Table 3. On the following day, the test compounds of the present disclosure were subjected to serial dilution. The dilution can be performed according to one of the following two methods: • (1) The first dilution method: The test compounds of the present disclosure (including the compounds in Table 1 and Examples) were subjected to 5-fold serial dilutions starting from a highest concentration of 2000 µM, resulting in a total of 9 concentrations from high to low (2000, 400, 80, 16, 3.2, 0.64, 0.128, 0.0256, 0.00512 µM). Subsequently, 0.5 µL of the test compound dilution was transferred into the 96-well plate containing the cells, with each well containing 100 µL of cell culture medium. […] Into the 96-well plate, the diluted test compounds and corresponding detection reagents were added, resulting in final test compound concentrations of 500 nM and 10 nM, respectively. The experimental procedure is described below using the diluted 2 µM test compound as an example.
(§3) 0.5 µL of the aforementioned diluted compound of the present disclosure (including the compounds in Table 1 and Examples) was added to the seeded cells in 100 µL of medium, yielding a final test compound concentration of 10 nM. After the cells were treated with the compounds of the present disclosure for a specified period, the cell viability assay reagent was added to the culture medium according to the kit's instructions to determine cell viability. […] All controls were treated using the same procedure as the compounds of the present disclosure. The growth inhibition curves for the compounds of the present disclosure were plotted using Prism GraphPad software, and the IC50 values were calculated therefrom.

[3] = molecular target: T1, human Cereblon WT GST-tagged protein (Homo sapiens, UniProt Q96SW2); experiment: CRBN-binding affinity, HTRF (CEREBLON BINDING kit); conditions: for inhibition at 0.5 µM: read-out: Inhibition Rate at 0.5 µM (%); for inhibition at 2 µM: read-out: Inhibition Rate at 2 µM (%)
T1 construct: purchased CISBIO 64BDCRBNPEH

[4] = test system: Human multiple myeloma cell (MM.1S); experiment: Tumor cell proliferation inhibition (CellTiter-Meiluncell luminescent cell viability assay); conditions: Homo sapiens, MM1.S, 96 h; for inhibition at 0.01 µM: read-out: Inhibition Rate at 10 nM (%); for inhibition at 0.5 µM: read-out: Inhibition Rate at 500 nM (%)
[5] = test system: Human T cell acute lymphoblastic leukemia cell (CCRF-CEM); experiment: as above; conditions: 96 h; for inhibition at 0.01 µM: read-out: Inhibition Rate at 10 nM (%); for inhibition at 0.5 µM: read-out: Inhibition Rate at 500 nM (%)
Procedure: as §1, §2, §3

IKZF2 = molecular target: T2, IKZF2 (Homo sapiens, UniProt Q96SW2+Q9UKS7); experiment: Western blot, degradation of substrate protein in hPBMCs; assay type: cell-based
T2 construct: effects of the compounds of the present disclosure on the expression of target proteins in cells; endogenous in cells; host or cells: human PBMCs (Milecell Biotechnologies)

WEE1 = molecular target: T3, WEE1 (Homo sapiens, UniProt P30291+Q96SW2); experiment: as above; assay type: cell-based
T3 construct: effects of the compounds of the present disclosure on the expression of target proteins in cells; endogenous in cells; host or cells: human PBMCs (Milecell Biotechnologies)

IKZF3 = molecular target: T4, IKZF3 (Homo sapiens, UniProt Q96SW2+Q9UKT9); experiment: as above; assay type: cell-based
T4 construct: effects of the compounds of the present disclosure on the expression of target proteins in cells; endogenous in cells; host or cells: human PBMCs (Milecell Biotechnologies)

CK1α = molecular target: T5, CK1α (Homo sapiens, UniProt P48729+Q96SW2); experiment: as above; assay type: cell-based
T5 construct: effects of the compounds of the present disclosure on the expression of target proteins in cells; endogenous in cells; host or cells: human PBMCs (Milecell Biotechnologies)

IKZF1 = molecular target: T6, IKZF1 (Homo sapiens, UniProt Q13422+Q96SW2); experiment: as above; assay type: cell-based
T6 construct: effects of the compounds of the present disclosure on the expression of target proteins in cells; endogenous in cells; host or cells: human PBMCs (Milecell Biotechnologies)

[6] = test system: Human multiple myeloma peripheral blood B lymphocyte cell (RPMI-8226); experiment: Tumor cell proliferation inhibition (CellTiter-Meiluncell luminescent cell viability assay); conditions: RPMI-8226, 96 h; for inhibition at 0.01 µM: read-out: Inhibition Rate at 10 nM (%); for inhibition at 0.5 µM: read-out: Inhibition Rate at 500 nM (%)
GSPT1 = experiment: Western blot, degradation of substrate protein in hPBMCs; assay type: cell-based, Human
[7] = test system: Human acute myeloid leukemia cell line: Kasumi-1; experiment: Tumor cell proliferation inhibition (CellTiter-Meiluncell luminescent cell viability assay); conditions: Kasumi 1, 96 h; for inhibition at 0.01 µM: read-out: Inhibition Rate at 10 nM (%); for inhibition at 0.5 µM: read-out: Inhibition Rate at 500 nM (%)
Procedure: as §1, §2, §3

[8] = test system: Human myeloid monocytic leukemia cell (MV-4-11); experiment: as above; conditions: MV4-11, 96 h; for inhibition at 0.01 µM: read-out: Inhibition Rate at 10 nM (%); for inhibition at 0.5 µM: read-out: Inhibition Rate at 500 nM (%)
[9] = test system: Human acute T lymphocytic leukemia cell (Molt4); experiment: as above; conditions: MOLT-4, 96 h; for inhibition at 0.01 µM: read-out: Inhibition Rate at 10 nM (%); for inhibition at 0.5 µM: read-out: Inhibition Rate at 500 nM (%)
[10] = 24 hours treatment, compounds at 50 nM and 500 nM (concentration behind the class not stated)
[11] = Western blot, 24 hours of compound treatment, compounds tested at 50 nM and 500 nM (concentration for the table not stated)

T3 sequence (P30291 whole entry): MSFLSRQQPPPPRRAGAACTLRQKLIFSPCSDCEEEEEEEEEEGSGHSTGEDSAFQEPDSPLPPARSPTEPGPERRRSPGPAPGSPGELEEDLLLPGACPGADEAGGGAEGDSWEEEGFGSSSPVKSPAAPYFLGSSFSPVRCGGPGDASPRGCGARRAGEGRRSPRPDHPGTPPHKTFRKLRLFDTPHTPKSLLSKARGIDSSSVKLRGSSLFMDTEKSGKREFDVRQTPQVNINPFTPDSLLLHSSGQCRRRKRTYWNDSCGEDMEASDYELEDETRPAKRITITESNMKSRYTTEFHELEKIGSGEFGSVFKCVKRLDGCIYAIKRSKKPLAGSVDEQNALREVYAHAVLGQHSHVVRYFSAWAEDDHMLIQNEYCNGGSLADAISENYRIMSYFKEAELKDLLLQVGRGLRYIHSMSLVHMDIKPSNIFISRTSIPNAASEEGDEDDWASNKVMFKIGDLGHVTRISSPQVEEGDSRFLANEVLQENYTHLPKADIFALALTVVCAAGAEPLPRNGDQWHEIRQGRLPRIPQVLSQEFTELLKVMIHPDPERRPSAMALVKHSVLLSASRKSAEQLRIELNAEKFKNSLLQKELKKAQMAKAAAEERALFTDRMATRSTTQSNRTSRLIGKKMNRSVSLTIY
T3 sequence (Q96SW2 whole entry): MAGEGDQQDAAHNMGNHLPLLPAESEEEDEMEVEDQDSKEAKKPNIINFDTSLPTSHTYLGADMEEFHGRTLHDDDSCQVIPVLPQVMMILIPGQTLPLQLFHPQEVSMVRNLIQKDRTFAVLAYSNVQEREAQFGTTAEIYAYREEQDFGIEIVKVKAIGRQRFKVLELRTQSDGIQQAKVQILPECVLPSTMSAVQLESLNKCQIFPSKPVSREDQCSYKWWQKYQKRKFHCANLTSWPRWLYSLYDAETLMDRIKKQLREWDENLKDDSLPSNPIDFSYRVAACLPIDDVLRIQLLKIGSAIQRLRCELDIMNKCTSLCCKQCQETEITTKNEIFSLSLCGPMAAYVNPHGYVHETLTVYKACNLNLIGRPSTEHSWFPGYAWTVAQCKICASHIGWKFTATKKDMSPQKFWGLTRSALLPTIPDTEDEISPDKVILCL
T3 sequence (Q16531 whole entry partner): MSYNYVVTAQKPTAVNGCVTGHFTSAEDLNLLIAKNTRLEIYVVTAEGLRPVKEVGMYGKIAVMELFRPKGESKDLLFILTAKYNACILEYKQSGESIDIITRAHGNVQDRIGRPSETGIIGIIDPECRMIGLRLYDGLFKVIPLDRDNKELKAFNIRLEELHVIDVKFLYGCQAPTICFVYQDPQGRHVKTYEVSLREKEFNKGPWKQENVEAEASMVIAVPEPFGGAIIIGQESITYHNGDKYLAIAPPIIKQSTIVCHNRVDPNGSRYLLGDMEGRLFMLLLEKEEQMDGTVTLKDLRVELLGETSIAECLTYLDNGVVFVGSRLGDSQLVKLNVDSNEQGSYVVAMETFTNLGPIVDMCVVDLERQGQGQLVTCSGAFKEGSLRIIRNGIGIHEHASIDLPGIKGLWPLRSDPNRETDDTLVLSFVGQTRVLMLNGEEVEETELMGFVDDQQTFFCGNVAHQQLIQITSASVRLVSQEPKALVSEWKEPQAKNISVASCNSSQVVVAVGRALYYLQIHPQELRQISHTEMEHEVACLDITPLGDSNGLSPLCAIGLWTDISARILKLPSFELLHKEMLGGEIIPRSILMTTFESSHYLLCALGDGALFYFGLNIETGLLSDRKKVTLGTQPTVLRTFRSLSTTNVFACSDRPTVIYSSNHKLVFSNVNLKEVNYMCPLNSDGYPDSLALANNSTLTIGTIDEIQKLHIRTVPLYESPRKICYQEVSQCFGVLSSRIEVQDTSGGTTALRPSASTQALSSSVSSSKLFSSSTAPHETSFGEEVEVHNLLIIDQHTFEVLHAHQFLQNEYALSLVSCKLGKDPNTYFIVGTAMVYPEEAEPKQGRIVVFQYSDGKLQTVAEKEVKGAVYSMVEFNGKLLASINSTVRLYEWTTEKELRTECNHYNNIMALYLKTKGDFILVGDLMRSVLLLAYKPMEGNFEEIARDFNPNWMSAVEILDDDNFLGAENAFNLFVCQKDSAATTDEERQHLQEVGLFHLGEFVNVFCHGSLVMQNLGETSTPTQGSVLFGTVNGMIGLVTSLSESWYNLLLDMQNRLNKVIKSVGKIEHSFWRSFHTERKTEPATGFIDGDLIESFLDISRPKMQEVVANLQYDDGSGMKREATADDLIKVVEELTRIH
T6 sequence (Q13422 whole entry): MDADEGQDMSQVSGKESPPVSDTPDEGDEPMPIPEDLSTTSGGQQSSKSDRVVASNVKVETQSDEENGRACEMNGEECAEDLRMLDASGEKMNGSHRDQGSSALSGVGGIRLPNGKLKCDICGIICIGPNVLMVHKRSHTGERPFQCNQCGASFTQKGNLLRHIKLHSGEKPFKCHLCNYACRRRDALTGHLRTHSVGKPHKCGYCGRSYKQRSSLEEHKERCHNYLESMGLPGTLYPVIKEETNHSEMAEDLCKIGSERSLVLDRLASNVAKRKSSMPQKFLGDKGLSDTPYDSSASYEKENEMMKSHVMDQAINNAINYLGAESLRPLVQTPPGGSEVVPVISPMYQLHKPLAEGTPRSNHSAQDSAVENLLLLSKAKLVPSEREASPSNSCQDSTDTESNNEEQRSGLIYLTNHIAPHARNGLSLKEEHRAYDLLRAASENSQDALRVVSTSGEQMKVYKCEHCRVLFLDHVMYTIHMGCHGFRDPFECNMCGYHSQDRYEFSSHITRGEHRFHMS
T6 sequence (Q96SW2 whole entry): as the sequence (Q96SW2 whole entry) above
T6 sequence (Q16531 whole entry partner): as the sequence (Q16531 whole entry partner) above
T2 sequence (Q9UKS7 whole entry): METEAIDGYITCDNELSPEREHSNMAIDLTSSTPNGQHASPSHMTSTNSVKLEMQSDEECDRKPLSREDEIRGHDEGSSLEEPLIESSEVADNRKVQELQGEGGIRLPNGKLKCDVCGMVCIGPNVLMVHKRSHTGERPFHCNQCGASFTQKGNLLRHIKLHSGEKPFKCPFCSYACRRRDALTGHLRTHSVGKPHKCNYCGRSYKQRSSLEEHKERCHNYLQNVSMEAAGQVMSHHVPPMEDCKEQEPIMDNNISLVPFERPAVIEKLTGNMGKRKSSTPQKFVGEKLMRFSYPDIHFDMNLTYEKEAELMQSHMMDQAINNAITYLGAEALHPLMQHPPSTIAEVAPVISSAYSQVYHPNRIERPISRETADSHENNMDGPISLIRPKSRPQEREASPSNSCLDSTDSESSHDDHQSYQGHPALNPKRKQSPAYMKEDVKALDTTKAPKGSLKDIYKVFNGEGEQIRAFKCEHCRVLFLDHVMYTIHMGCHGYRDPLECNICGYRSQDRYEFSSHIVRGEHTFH
T2 sequence (Q96SW2 whole entry): as the sequence (Q96SW2 whole entry) above
T2 sequence (Q16531 whole entry partner): as the sequence (Q16531 whole entry partner) above
T1 sequence (Q96SW2 whole entry): as the sequence (Q96SW2 whole entry) above
T5 sequence (P48729 whole entry): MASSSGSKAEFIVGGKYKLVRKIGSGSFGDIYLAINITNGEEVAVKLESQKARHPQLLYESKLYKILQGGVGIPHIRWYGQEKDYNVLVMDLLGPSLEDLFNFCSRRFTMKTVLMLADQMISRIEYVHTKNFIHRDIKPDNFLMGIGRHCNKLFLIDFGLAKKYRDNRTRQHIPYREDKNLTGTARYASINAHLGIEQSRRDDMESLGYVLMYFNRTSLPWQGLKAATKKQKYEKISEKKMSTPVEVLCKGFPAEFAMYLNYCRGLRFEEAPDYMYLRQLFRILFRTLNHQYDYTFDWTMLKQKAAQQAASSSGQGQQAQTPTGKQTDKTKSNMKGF
T5 sequence (Q96SW2 whole entry): as the sequence (Q96SW2 whole entry) above
T5 sequence (Q16531 whole entry partner): as the sequence (Q16531 whole entry partner) above
T4 sequence (Q9UKT9 whole entry): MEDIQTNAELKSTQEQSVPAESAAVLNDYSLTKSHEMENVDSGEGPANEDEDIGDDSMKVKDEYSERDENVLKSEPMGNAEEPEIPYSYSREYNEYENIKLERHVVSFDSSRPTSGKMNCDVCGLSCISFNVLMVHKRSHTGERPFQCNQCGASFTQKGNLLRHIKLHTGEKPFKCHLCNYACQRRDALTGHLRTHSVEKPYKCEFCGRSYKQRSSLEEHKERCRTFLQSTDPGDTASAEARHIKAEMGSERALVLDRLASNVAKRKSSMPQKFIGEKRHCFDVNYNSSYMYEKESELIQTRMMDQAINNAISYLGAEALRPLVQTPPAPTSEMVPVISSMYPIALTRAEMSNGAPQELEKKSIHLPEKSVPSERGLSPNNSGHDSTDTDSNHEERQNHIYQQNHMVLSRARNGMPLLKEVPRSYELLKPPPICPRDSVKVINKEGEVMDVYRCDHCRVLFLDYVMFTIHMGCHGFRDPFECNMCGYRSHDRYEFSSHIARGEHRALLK
T4 sequence (Q96SW2 whole entry): as the sequence (Q96SW2 whole entry) above
T4 sequence (Q16531 whole entry partner): as the sequence (Q16531 whole entry partner) above

Structure (SMILES)	inhibition at 0.01 µM [1]	inhibition at 0.5 µM [1]	inhibition at 0.5 µM [2]	inhibition at 0.5 µM [3]	inhibition at 2 µM [3]	inhibition at 0.01 µM [4]	inhibition at 0.5 µM [4]	inhibition at 0.01 µM [5]	inhibition at 0.5 µM [5]	inhibition at 0.01 µM [6]	inhibition at 0.5 µM [6]	inhibition at 0.01 µM [7]	inhibition at 0.5 µM [7]	inhibition at 0.01 µM [8]	inhibition at 0.5 µM [8]	inhibition at 0.01 µM [9]	inhibition at 0.5 µM [9]	IKZF2 substrate protein remaining % (IKZF2; [11])	Wee1 substrate protein remaining % (WEE1; [11])	IKZF3 substrate protein remaining % (IKZF3; [11])	other results
O=C1CCC(N2Cc3cc(CN4CCN(Cc5ccccc5-c5ccc(Cl)cc5)CC4)ccc3C2=S)C(=O)N1 (stereo not shown) [GT-08166, 3-(5-((4-((4'-chloro-[1,1'-biphenyl]-2-yl)methyl)piperazin-1-yl)methyl)-1-thioxoisoindolin-2-yl)piperidine-2,6-dione]	10 to 20%	80 to 100%	60 to 70%	20 to 30%	60 to 80%	40 to 50%	80 to 100%	10 to 20%	80 to 100%	10 to 20%	60 to 70%	10 to 20%	80 to 100%	30 to 40%	80 to 100%	10 to 20%	80 to 100%				IKZF2 substrate protein remaining % (IKZF2; [10]): A (0% ≤ substrate protein remaining % ≤ 80%); Wee1 substrate protein remaining % (WEE1; [10]): A (0% ≤ substrate protein remaining % ≤ 80%); IKZF3 substrate protein remaining % (IKZF3; [10]): A (0% ≤ substrate protein remaining % ≤ 80%); CK1α substrate protein remaining % (CK1α; [10]): B (80%< substrate protein remaining %≤ 100%); IKZF 1 substrate protein remaining % (IKZF1; [10]): B (80%< substrate protein remaining %≤ 100%); GSPT1 substrate protein remaining % (GSPT1; [10]): A (0% ≤ substrate protein remaining % ≤ 80%)
O=C1CCC(N2Cc3cc(CN4CCC(N(c5ccccc5)c5ccccn5)CC4)ccc3C2=S)C(=O)N1 (stereo not shown) [GT-07846, 3-(5-((4-(phenyl(pyridin-2-yl)amino)piperidin-1-yl)methyl)-1-thioxoisoindolin-2-yl)piperidine-2,6-dione]	30 to 40%	80 to 100%	40 to 50%	53 to 60%	80 to 100%	60 to 70%	80 to 100%	40 to 50%	80 to 100%	20 to 30%	60 to 70%	40 to 50%	80 to 100%	10 to 18%	80 to 100%	70 to 80%	80 to 100%	A (0% ≤ substrate protein remaining % ≤ 80%)	A (0% ≤ substrate protein remaining % ≤ 80%)	A (0% ≤ substrate protein remaining % ≤ 80%)	CK1α substrate protein remaining % (CK1α; [11]): B (80%< substrate protein remaining %≤ 100%); IKZF 1 substrate protein remaining % (IKZF1; [11]): A (0% ≤ substrate protein remaining % ≤ 80%); GSPT1 substrate protein remaining % (GSPT1; [11]): A (0% ≤ substrate protein remaining % ≤ 80%)
O=C1CCC(N2Cc3cc(CN4CC=C(c5cccc(F)c5Cl)CC4)ccc3C2=S)C(=O)N1 (stereo not shown) [GT-08206, 3-(5-((4-(2-chloro-3-fluorophenyl)-3,6-dihydropyridin-1(2H)-yl)methyl)-1-thioxoisoindolin-2-yl)piperidine-2,6-dione]	50 to 60%	80 to 100%	80 to 100%	40 to 53%	80 to 100%	50 to 60%	80 to 100%	80 to 100%	80 to 100%	80 to 100%	80 to 100%	60 to 70%	80 to 100%	80 to 100%	80 to 100%	70 to 80%	80 to 100%	A (0% ≤ substrate protein remaining % ≤ 80%)	A (0% ≤ substrate protein remaining % ≤ 80%)	A (0% ≤ substrate protein remaining % ≤ 80%)	inhibition at 0.01 µM ([2]; read-out: Inhibition Rate at 10 nM (%)): 0 to 5%; CK1α substrate protein remaining % (CK1α; [11]): A (0% ≤ substrate protein remaining % ≤ 80%); IKZF 1 substrate protein remaining % (IKZF1; [11]): A (0% ≤ substrate protein remaining % ≤ 80%); GSPT1 substrate protein remaining % (GSPT1; [11]): A (0% ≤ substrate protein remaining % ≤ 80%)
